From patent publication US7192742B2, “FO-6979 substances and process for producing the same” (Gakkou Houjin Kitasato Gakeun, priority 2001, dated 2007)
Where two headings read alike, the source gives them in different places.

Key:
[1] = target: T1, acyl-CoA: cholesterol acyltransferase derived from mouse; assay: Acyl-CoA: cholesterol acyltransferase activity assay, mouse liver microsome membrane fraction, [1-14C] oleoyl-CoA; type: biochemical; details: 37° C. for 10 minutes, read-out: IC50, concentration which inhibits 50% of Acyl-CoA: cholesterol acyltransferase activity
T1 construct: A membrane fraction derived from mouse liver microsome was used as an enzyme origin
Protocol: Inhibitory activities of FO 6979-M0 substance, -M1 substance, -M2 substance, -M3 substance and -M4 substance of the present invention (hereinafter totally designates as FO-6979 substances) on acyl-CoA: cholesterol acyltransferase derived from mouse are explained hereinbelow.
Acyl-CoA: cholesterol acyltransferase activity was assayed by the modified method of Uelmen, et al. (J. Biol. Chem. 270: 26192–26201, 1995). A membrane fraction derived from mouse liver microsome was used as an enzyme origin. A mouse liver was homogenized with buffer A [50 mM Tris-HCL (pH 7.8), 1 mM EDTA and 1 mM phenylmethanesulfonyl fluoride] using Potter homogenizer (Tokyo-RIKO Inc.).
The homogenate was centrifuged at 12,000×g, and the supernatant solution was ultracentrifuged at 100,000×g to obtain the microsome fraction which was prepared for a solution with protein concentration 5 mg/ml by adding the buffer A. Assay of acyl-CoA: cholesterol acyltransferase activity was performed by adding enzyme 200 μg protein, […] bovine serumu alubumin, [1-^14C] oleoyl-CoA (final concentration 170 μM, 0.09 μCi) and each FO-6979 substance into the buffer A to prepare total 100 μl solution and incubated at 37° C. for 10 minutes.
Subsequently, the reaction was terminated by adding 0.5 ml ethanol and added 1.5 ml hexane therein, then stirred well. Hexane layer 1 ml was dried up and was spotted on TLC plate (silica gel plate, thickness 0.5 mm, Merck Co., U.S.A.) which was developed with a solvent mixture, petroleum ether/diethyl ether/acetic acid (90:10:1, v/v). The generated [^14C] cholesteryl olate was quantitative measured using radio scanner (Ambis Co.). Results indicating concentration which inhibits 50% of Acyl-CoA: cholesterol acyltransferase activity of FO-6979 substances (-M0 substance˜-M4 substance) (IC50) are shown in the following table.

[2] = tested on: cholesteryl ester formation in mouse peritoneal macrophage; assay: Cholesteryl ester formation in mouse peritoneal macrophage ([14C] oleic acid incorporation); type: cell-based; details: for IC50: 14 hours incubation, read-out: IC50, generation of [14C] cholesteryl olate
Protocol: Inhibitory action of FO-6979 substances of the present invention on cholesteryl ester formation in mouse peritoneal macrophage is explained.
Cholesteryl ester formation and lipid droplets formation in mouse peritoneal macrophage were performed according to a method of Namatame et al.(J. Biochem. 125: 319–327, 1999). Macrophage isolated from mouse peritoneal fluid was suspended at 2.0×10^6 cells/ml in Dulbecco's modified Eagle's medium containing 6.8% lipoprotein deficient serum (6.8% LPDS-DMEM) and aliquots (0.25 ml) were dispensed into a 48-well microplate (Corning Co.).
(§1) The plate was incubated in a humidified 5% CO2 atmosphere incubator at 37° C. for 2 hours, after which each plate was washed with Hank's solution to remove the unattached cells. The plate was incubated in 6.8% LPDS-DMEM for 1 hour, and each one of FO-6979 substances (2.5 μl 1 methanol solution), liposome [consisting of phosphatidylcholine/phosphatidylserine/dicetylphosphate/cholesterol=10:10:2:15 (nmol) in 10 μl of 0.3 M glucose] and [1-^14C] oleic acid (5 μl, 0.05 μCi, 1 nmol) were added therein, then incubated further 14 hours.
After the incubation, supernatant was removed and the intracellular neutral lipids were extracted twice with adding hexane 0.6 ml and isopropanol 0.4 ml. The mixture was concentrated, spotted on TLC plate (silica gel plate, Merck Co., thickness 0.5 mm) and developed and with a mixed solvent of hexane/diethyl ether/acetia acid(70:30:1, v/v). The separated [^14C] cholesteryl olate and [^14C] triacylglycerol were quantitatively assayed using radio scanner (Ambis Co.).

[3] = tested on: mouse peritoneal macrophage; assay: Toxicity test on growth of mouse peritoneal macrophage; type: cell-based; details: final concentration of 50 μM
mice = assay: Toxicity test, intraperitoneal administration in mice; type: in vivo; details: administered intraperitoneally, 100 mg/kg
Protocol: Next, toxicity test of FO-6979 substances of the present invention was explained hereinbelow.
No toxicity was noted when FO-6979-M0 substance, -M1 substance, -M2 substance, -M3 substance and -M4 substance was administered intraperitoneally in mice with 100 mg/kg.

Solubility in solvent = type: physicochemical
From the text: The thus obtained FO-6979-M0 substance, -M1 substance, -M2 substance, -M3 substance and -M4 substance exist in the cultured microorganism cells and the culture filtrate. Isolation of FO-6979-M0 substance, -M1 substance, -M2 substance, -M3 substance and -M4 substance from the cultured mass can be performed by extracting the whole cultured mass with water miscible organic solvent such as aceton, distilling off the organic solvent from the extract in vacuo, and extracting the residue with water immiscible organic solvent such as ethyl acetate. In addition to the above extraction procedure, conventional methods used for isolation of fat-soluble substances such as adsorption chromatography, gel filtration chromatography, thin-layer chromatography, counter current chromatography and high performance liquid chromatography can be used optionally in combination or repeatedly to isolate and purify FO-6979-M0 substance, -M1 substance, -M2 substance, -M3 substance and -M4 substance. Physicochemical properties of FO-6979 substances of the present invention are explained hereinbelow.

[4] = tested on: lipid droplets formation in mouse peritoneal macrophage; assay: Lipid droplets formation in mouse peritoneal macrophage (oil red O / hematoxylin staining); type: cell-based; details: 20 μM, 14 hours
Protocol: Inhibitory action of FO-6979 substances of the present invention on lipid droplets formation in mouse peritoneal macrophage is explained.
Lipid droplets formation in mouse peritoneal macrophage was performed according to the method of Namatame et al. (J. Biochem. 125:319–327, 1999). Macrophage isolated from mouse peritoneal fluid was suspended at 2.0×10^6 cells/ml in Dulbecco's modified Eagle's medium containing 6.8% lipoprotein deficient serum (6.8% LPDS-DMEM) and aliquots (0.25 ml) were dispensed into a slide chamber (Nunc Co.).
as §1, with “chamber” for “plate”, “the chamber” for “each plate”, “FO-6979-M3 substance” for “each one of FO-6979 substances”, “μl” for “μl 1”, “solution) and” for “solution),”, “glucose]” for “glucose] and [1-^14C] oleic acid (5 μl, 0.05 μCi, 1 nmol)”
The lipid droplets and nuclei were double stained with oilred O and hematoxylin, and observed by optical microscope (Olympus OpticalCo., Japan).

[5] = Mus musculus, Peritoneal macrophage, 14 h

Row | SMILES | IC50 [1] [µM] | IC50 [2, 5] [µM] | toxicity for growth of mouse peritoneal macrophage [3] | toxicity in mice (mice) | Solubility in solvent: methanol, benzene, chloroform and ethyl acetate (Solubility in solvent) | Solubility in solvent: water and hexane (Solubility in solvent) | inhibition at 45 µM ([2]; at 45 μM, read-out: inhibition of [14C] cholesteryl olate generation) [%] | IC50 [2] [µM] | lipid droplets accumulated in cytoplasm, decreased to % as compared with no drug addition (control) [4]
1 | CCCCC(C)C1CC(=O)N[C@@H](C(C)C)C(=O)N[C@@H](C)C(=O)N[C@H](C(C)C)C(=O)O1 (stereo partly drawn) [FO-6979-M0 substance] | > 50 | > 25 | No toxicity | No toxicity | soluble | slight soluble |  |  | 
2 | CCCCC(C)C1CC(=O)N[C@@H](C(C)C)C(=O)N[C@@H](C)C(=O)N[C@H]([C@@H](C)CC)C(=O)O1 (stereo partly drawn) [FO-6979-M1 substance] | > 50 | > 45 | No toxicity | No toxicity | soluble | slightly soluble | 20 |  | 
3 | CCCCC(C)C1CC(=O)N[C@@H](C(C)C)C(=O)N[C@@H](C)C(=O)N[C@H](CC(C)C)C(=O)O1 (stereo partly drawn) [FO-6979-M2 substance] |  |  | No toxicity | No toxicity | Soluble | slightly soluble |  | > 25 | 
4 | CCCCC(C)C1CC(=O)N[C@@H](Cc2ccccc2)C(=O)N[C@@H](C)C(=O)N[C@H](C(C)C)C(=O)O1 (stereo partly drawn) [FO-6979-M3 substance] | 40 | 21 | No toxicity | No toxicity | soluble | slightly soluble |  | > 25 | about 50%
5 | CCCCCCC(C)C1CC(=O)N[C@@H](C(C)C)C(=O)N[C@@H](C)C(=O)N[C@H]([C@@H](C)CC)C(=O)O1 (stereo partly drawn) [FO-6979-M4 substance] |  |  | No toxicity | No toxicity | soluble | slightly soluble |  |  | 
